Tests used:
denuded oocytes (DO) = assay: Oocyte assay, antagonistic testing, inhibition of FF-Mas induced maturation in denuded oocytes (DO assay); format: cell-based, mice (B6D2-F1, strain C57BL×DBA); conditions: FF-Mas 5 μM, compound tested 5 μM, control (FF-Mas alone) in brackets
Experimental: (§1) The meiosis inhibiting activity of the 22R-hydroxycholesta-8,14-diene derivatives of the invention is measured in an in vitro oocyte assay as the ability to inhibit the FF-Mas or 22S-hydroxy-FF-Mas induced maturation, in hypoxanthine media, in denuded oocytes (DO) or cumulus enclosed oocytes (CEO), respectively. Natural resumption of meiosis can be mimicked in vitro by addition of FF-Mas or other agonists to the culture medium containing hypoxanthine. The antagonistic activity of the compounds is measured as the ability to inhibit the FF-Mas or 22S-hydroxy-FF-Mas induced oocyte maturation in denuded oocytes or cumulus enclosed oocytes, respectively, in vitro. Ovaries are obtained from immature female mice (B6D2-F1, strain C57BL×DBA). At the age of 19, 20 or 21 days the mice are injected subcutaneously with a single dose of 20 IU follicle stimulating hormone (Humegon, Organon, The Netherlands) in saline. Forty-eight hours after follicle stimulating hormone injection mice are killed by cervical dislocation. The ovaries are removed, freed of extraneous tissue and placed in a multidish containing 0.5 ml preparation medium at 37° C. L-15 Leibovitz medium (Gibco, pH 7.3±0.1) supplemented with bovine serum albumin (3 mg·ml^−1), L-glutamine (0.23 mM), sodium pyruvate (2 mM) and hypoxanthine (4 mM) is used as preparation medium. The antral follicles of the ovaries are punctured under a dissecting microscope using two 27-gauge needles attached to two 1 ml syringes. […] At t=0 the number of oocytes with intact germinal vesicles (GV) or germinal vesicle break-down (GVBD) is counted under an inverted microscope with differential interference contrast equipment. […] At the end of the culture period the number of oocytes with GV or GVBD per group is counted. For statistical analysis the percentage germinal vesicle breakdown is calculated for each group in one block. These percentages are subjected to arcsin transformation, and differences between control and test compounds are analyzed by an ANOVA test for a randomized block design. […]

[1] = system: cumulus enclosed oocytes (CEO); assay: Oocyte assay, antagonistic testing, inhibition of 22S-hydroxy-FF-Mas induced maturation in cumulus enclosed oocytes (CEO assay); format: cell-based, mice (B6D2-F1, strain C57BL×DBA); conditions: 22S-hydroxy-FF-Mas 5 μM, control (22S-hydroxy-FF-Mas alone) in brackets
Experimental: as §1

[2] = system: naturally occurring meiosis activating substance; conditions: as disclosed in WO98/28323; cited from earlier work
LXRα receptor = biological target: T1, LXRα receptor (Homo sapiens, UniProt Q13133); conditions: among a series of hydroxycholestane derivatives; cited from earlier work
T1 sequence (Q13133 1-447): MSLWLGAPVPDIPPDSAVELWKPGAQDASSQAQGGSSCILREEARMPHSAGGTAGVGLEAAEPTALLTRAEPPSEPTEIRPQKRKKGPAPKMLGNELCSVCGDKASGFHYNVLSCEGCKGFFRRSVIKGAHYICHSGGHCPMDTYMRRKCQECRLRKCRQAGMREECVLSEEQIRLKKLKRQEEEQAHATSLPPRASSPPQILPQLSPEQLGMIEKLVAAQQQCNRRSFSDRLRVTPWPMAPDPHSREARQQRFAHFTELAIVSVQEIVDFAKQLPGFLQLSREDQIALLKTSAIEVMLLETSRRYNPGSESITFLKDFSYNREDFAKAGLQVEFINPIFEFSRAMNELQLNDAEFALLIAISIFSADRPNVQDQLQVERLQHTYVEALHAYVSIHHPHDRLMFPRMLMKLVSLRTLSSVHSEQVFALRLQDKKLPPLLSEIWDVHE

CC(C)CC[C@@H](O)[C@@H](C)[C@H]1CC[C@H]2[C@@H]3CC=C4C[C@@H](O)CC[C@]4(C)[C@H]3CC[C@]12C [22R-hydroxycholesterol]
% GVBD DO assay exp. (denuded oocytes (DO)): 38(89) %
% GVBD CEO assay exp. [1]: 52(89)^4%
antagonist activity (meiosis regulating) [2]: only weakly active as an antagonist
activation of the LXRα receptor (LXRα receptor): most potent activator of the LXRα receptor

— US6518262B1, “22R-hydroxycholesta-8, 14-diene derivatives for the inhibition of meiosis” (Akzo Nobel N.V., priority 1999, dated 2003)
